Data published in ChEMBL document CHEMBL5126582, “Discovery of (2-(pyrrolidin-1-yl)thieno[3,2-d]pyrimidin-4-yl)(3,4,5-trimethoxyphenyl)methanone as a novel potent tubulin depolymerizing and vascular disrupting agent” (Eur J Med Chem, 2022).

Key:
HL-60 = experiment: Antiproliferative activity against human HL-60 cells assessed as reduction in cell viability incubated for 48 hrs by MTS assay; format: functional, cell-based; conditions: HL-60, 48 h
A549 = experiment: cells; conditions: Homo sapiens, A549, 48 h
Description: Antiproliferative activity against human A549 cells assessed as reduction in cell viability incubated for 48 hrs by MTS assay

HeLa [1] = experiment: Antiproliferative activity against human HeLa cells assessed as reduction in cell viability incubated for 48 hrs by MTS assay; format: functional, cell-based
HCT-116 = experiment: Antiproliferative activity against human HCT-116 cells assessed as reduction in cell viability incubated for 48 hrs by MTS assay; format: functional, cell-based; conditions: HCT-116, 48 h
[2] = Metabolic stability in rat liver microsomes assessed as intrinsic clearance incubated for 5 mins in presence of NADPH by HPLC analysis; format: ADME, Microsome; conditions: read-out: CLH
[3] = Antiproliferative activity against human A549/PTX cells assessed as reduction in cell viability measured for 48 hrs by MTS assay; format: functional, cell-based
[4] = Resistance index, ratio of IC50 for antiproliferative activity against human A549/PTX cells assessed as reduction in cell viability to IC50 for antiproliferative activity against human A549 cells assessed as reduction in cell viability; format: functional
HeLa [5] = experiment: Induction of apoptosis in human HeLa cells assessed as late apoptotic cells at 10 nM incubated for 72 hrs by annexin V FITC and propidium iodide staining based flow cytometry analysis (reference value: 4.70%); format: functional
HeLa [6] = experiment: Induction of apoptosis in human HeLa cells assessed as necrotic cells at 10 nM incubated for 24 hrs by annexin V FITC and propidium iodide staining based flow cytometry analysis (reference value: 1.14 %); format: functional
HeLa [7] = experiment: Induction of apoptosis in human HeLa cells assessed as necrotic cells at 10 nM incubated for 72 hrs by annexin V FITC and propidium iodide staining based flow cytometry analysis (reference value: 2.88 %); format: functional
HeLa [8] = experiment: Induction of mitochondrial membrane potential alteration in human HeLa cells assessed as viable cells at 10 nM measured after 48 hrs by JC1 staining-based flow cytometry analysis (reference value: 90.9%); format: functional; conditions: read-out: Activity
HeLa [9] = experiment: Induction of apoptosis in human HeLa cells assessed as early apoptotic cells at 10 nM incubated for 72 hrs by annexin V FITC and propidium iodide staining based flow cytometry analysis (reference value: 2.36%); format: functional
HeLa [10] = experiment: Induction of apoptosis in human HeLa cells assessed as viable cells at 10 nM incubated for 72 hrs by annexin V FITC and propidium iodide staining based flow cytometry analysis (reference value: 90.1%); format: functional; conditions: read-out: Activity
HeLa [11] = experiment: Induction of apoptosis in human HeLa cells assessed as early apoptotic cells at 10 nM incubated for 48 hrs by annexin V FITC and propidium iodide staining based flow cytometry analysis (reference value: 6.01%); format: functional
HeLa [12] = experiment: Induction of apoptosis in human HeLa cells assessed as early apoptotic cells at 10 nM incubated for 24 hrs by annexin V FITC and propidium iodide staining based flow cytometry analysis (reference value: 0.12%); format: functional
HeLa [13] = experiment: Induction of apoptosis in human HeLa cells assessed as viable cells at 10 nM incubated for 48 hrs by annexin V FITC and propidium iodide staining based flow cytometry analysis (reference value: 85.5%); format: functional; conditions: read-out: Activity
HeLa [14] = experiment: Induction of mitochondrial membrane potential alteration in human HeLa cells assessed as late apoptotic cells at 10 nM measured after 48 hrs by JC1 staining-based flow cytometry analysis (reference value: 0.009%); format: functional
HeLa [15] = experiment: Induction of apoptosis in human HeLa cells assessed as late apoptotic cells at 10 nM incubated for 48 hrs by annexin V FITC and propidium iodide staining based flow cytometry analysis (reference value: 8.87%); format: functional
HeLa [16] = experiment: Induction of apoptosis in human HeLa cells assessed as viable cells at 10 nM incubated for 24 hrs by annexin V FITC and propidium iodide staining based flow cytometry analysis (reference value: 85.7%); format: functional; conditions: read-out: Activity
HeLa [17] = experiment: Induction of apoptosis in human HeLa cells assessed as late apoptotic cells at 10 nM incubated for 24 hrs by annexin V FITC and propidium iodide staining based flow cytometry analysis (reference value: 0.05%); format: functional
HeLa [18] = experiment: Induction of apoptosis in human HeLa cells assessed as necrotic cells at 10 nM incubated for 48 hrs by annexin V FITC and propidium iodide staining based flow cytometry analysis (reference value: 1.85 %); format: functional
HeLa [19] = experiment: Induction of mitochondrial membrane potential alteration in human HeLa cells assessed as early apoptotic cells at 10 nM measured after 48 hrs by JC1 staining-based flow cytometry analysis (reference value: 9.07 %); format: functional
HeLa [20] = experiment: Induction of mitochondrial membrane potential alteration in human HeLa cells assessed as necrotic cells at 10 nM measured after 48 hrs by JC1 staining-based flow cytometry analysis (reference value: 0%); format: functional

Compound | IC50 (HL-60) | IC50 (A549) | IC50 (HeLa [1]) | IC50 (HCT-116) | also measured
COc1cc(C(=O)c2nc(N3CCSCC3)nc3ccsc23)cc(OC)c1OC | > 10000 nM | > 10000 nM | > 10000 nM | > 10000 nM | –
O=C(O)Cc1ccccc1Nc1c(Cl)cccc1Cl [DICLOFENAC] | – | – | – | – | microsomal CLint [2]: 64.2 µL/min/mg
COc1cc(C(=O)c2nc(NC3CCCC3)nc3ccsc23)cc(OC)c1OC | 8400 nM | > 10000 nM | > 10000 nM | > 10000 nM | –
COc1cc(C(=O)c2nc(NC3CCCCC3)nc3ccsc23)cc(OC)c1OC | 2460 nM | > 10000 nM | > 10000 nM | > 10000 nM | –
COc1cc(C(=O)c2nc(N3CCCCC3)nc3ccsc23)cc(OC)c1OC | 1120 nM | > 10000 nM | 1200 nM | > 10000 nM | –
COc1cc(C(=O)c2nc(N3CCC(F)(F)C3)nc3ccsc23)cc(OC)c1OC | 377 nM | 303 nM | 351 nM | 507 nM | –
CC(=O)O[C@H]1C(=O)[C@@]2(C)[C@H]([C@H](OC(=O)c3ccccc3)[C@]3(O)C[C@H](OC(=O)[C@H](O)[C@@H](NC(=O)c4ccccc4)c4ccccc4)C(C)=C1C3(C)C)[C@]1(OC(C)=O)CO[C@@H]1C[C@@H]2O [PACLITAXEL] | – | 1.1 nM | – | – | IC50 [3]: 1020 nM; Ratio IC50 [4]: 964
COc1nc(C(=O)c2cc(OC)c(OC)c(OC)c2)c2sccc2n1 | 224 nM | 965 nM | 263 nM | 329 nM | –
COc1ccc(/C=C\c2cc(OC)c(OC)c(OC)c2)cc1O [COMBRETASTATIN A4] | 1.3 nM | 7.5 nM | 1.4 nM | 1.1 nM | Activity (HeLa [5]): 31.8%; Activity (HeLa [6]): 8.87%; Activity (HeLa [7]): 23.3%; viability at 0.01 µM (HeLa [8]): 82%; Activity (HeLa [9]): 17%; viability at 0.01 µM (HeLa [10]): 25.1%; Activity (HeLa [11]): 20.1%; Activity (HeLa [12]): 7.41%; viability at 0.01 µM (HeLa [13]): 16.9%; Activity (HeLa [14]): 0%; Activity (HeLa [15]): 51.9%; viability at 0.01 µM (HeLa [16]): 79.4%; Activity (HeLa [17]): 7.5%; Activity (HeLa [18]): 11.2%; Activity (HeLa [19]): 18%; Activity (HeLa [20]): 0.011%
COc1cc(C(=O)c2nc(N3CCCC3)nc3cc(C)sc23)cc(OC)c1OC | 122 nM | 452 nM | 194 nM | 1740 nM | –
COc1cc(C(=O)c2nc(N(C)C3CCCCC3)nc3ccsc23)cc(OC)c1OC | > 10000 nM | > 10000 nM | > 10000 nM | > 10000 nM | –
COc1cc(C(=O)c2nc(N3CCC3)nc3ccsc23)cc(OC)c1OC | 486 nM | 3140 nM | 758 nM | 278 nM | –
COc1ccc(C(=O)c2nc(N3CCCC3)nc3ccsc23)cc1OC | > 10000 nM | > 10000 nM | > 10000 nM | > 10000 nM | –
COc1cc(C(=O)c2nc(N3CCN(C)CC3)nc3ccsc23)cc(OC)c1OC | > 10000 nM | > 10000 nM | > 10000 nM | > 10000 nM | –
CCOc1nc(C(=O)c2cc(OC)c(OC)c(OC)c2)c2sccc2n1 | 7090 nM | > 10000 nM | > 10000 nM | > 10000 nM | –
COc1cc(C(=O)c2nc(SC)nc3ccsc23)cc(OC)c1OC | 285 nM | > 10000 nM | > 10000 nM | > 10000 nM | –
COc1cc(C(=O)c2nc(Cl)nc3ccsc23)cc(OC)c1OC | 889 nM | 954 nM | 1140 nM | 225 nM | –

Compound | IC50 (HL-60) | IC50 (A549) | IC50 (HeLa [1]) | IC50 (HCT-116) | also measured
COc1ccc(C(=O)c2nc(N3CCCC3)nc3ccsc23)cc1 | > 10000 nM | > 10000 nM | > 10000 nM | > 10000 nM | –
COc1cc(C(=O)c2nc(Nc3cccc(C)c3)nc3ccsc23)cc(OC)c1OC | – | – | 53 nM | 151 nM | –
COc1cc(C(=O)c2nc(NC3CCOCC3)nc3ccsc23)cc(OC)c1OC | 8050 nM | > 10000 nM | > 10000 nM | > 10000 nM | –
COc1cccc(C(=O)c2nc(N3CCCC3)nc3ccsc23)c1 | 9570 nM | > 10000 nM | > 10000 nM | > 10000 nM | –
CNc1nc(C(=O)c2cc(OC)c(OC)c(OC)c2)c2sccc2n1 | 32 nM | 45 nM | 58 nM | 114 nM | –
COc1cc(C(=O)c2nc(NC3CCC3)nc3ccsc23)cc(OC)c1OC | 651 nM | 2400 nM | 933 nM | 293 nM | –
COc1cc(C(=O)c2nc(N(C)C)nc3ccsc23)cc(OC)c1OC | 536 nM | > 10000 nM | 1220 nM | > 10000 nM | –
COc1cc(C(=O)c2nc(N3CCNCC3)nc3ccsc23)cc(OC)c1OC | > 10000 nM | > 10000 nM | > 10000 nM | > 10000 nM | –
COc1cc(C(=O)c2nc(C3CCCC3)nc3ccsc23)cc(OC)c1OC | > 10000 nM | > 10000 nM | > 10000 nM | > 10000 nM | –
COc1cc(C(=O)c2nc(N3CC=CC3)nc3ccsc23)cc(OC)c1OC | 93 nM | 101 nM | 22 nM | 26 nM | –
COc1cc(OC)cc(C(=O)c2nc(N3CCCC3)nc3ccsc23)c1 | 934 nM | 4340 nM | 4380 nM | 616 nM | –
CCN(CC)c1nc(C(=O)c2cc(OC)c(OC)c(OC)c2)c2sccc2n1 | > 10000 nM | > 10000 nM | > 10000 nM | > 10000 nM | –
CCNc1nc(C(=O)c2cc(OC)c(OC)c(OC)c2)c2sccc2n1 | 174 nM | 147 nM | 37 nM | 309 nM | –
COc1cc(C(=O)c2nc(N3CCOCC3)nc3ccsc23)cc(OC)c1OC | > 10000 nM | > 10000 nM | > 10000 nM | > 10000 nM | –
COc1cc(C(=O)c2nc(N3CCC(O)C3)nc3ccsc23)cc(OC)c1OC (configuration not stated) | 3430 nM | 4980 nM | 2200 nM | 1400 nM | –
COc1cc(C(=O)c2nc(N3CCS(=O)(=O)CC3)nc3ccsc23)cc(OC)c1OC | > 10000 nM | > 10000 nM | > 10000 nM | > 10000 nM | –
